The values below come from patent US20100222294A1, “Formulations of ATP and Analogs of ATP” (priority 2009, published 2010).

This data set is classed as physicochemical. The method, then:
An aqueous solution containing the following components was made:
10 mg/ml of adenosine 5′-triphosphate disodium salt (anhydrous) (18.15 mM)
1 mg/ml of glycine (13.32 mM)
Sodium hydroxide (sufficient to adjust pH to 9.2-9.3)
Water sufficient to result in the above concentrations of adenosine 5′-triphosphate disodium salt (anhydrous), glycine, and 36 mg/ml of Na2HPO4.7H2O.
Below (in Table 2) are shown the relative amounts of ADP in the solution aliquots at the various time points. The data shown are concentrations of ADP as a percentage of the concentrations of ATP in the solution aliquots. The pH of the 72 month time point sample was 8.8.

Each structure is given as a SMILES string. Like-named read-outs stand apart in the source and are kept apart here.

In the case of `Nc1ncnc2c1ncn2[C@@H]1O[C@H](COP(=O)([O-])OP(=O)([O-])OP(=O)(O)O)[C@@H](O)[C@H]1O.[Na+].[Na+]` [ATP, adenosine 5′-triphosphate disodium salt (anhydrous)], the “Relative amount of ADP ([ADP]/[ATP] × 100)” value is, setting by setting: (0 months storage (immediately after making), 10 mg/ml ATP disodium, 1 mg/ml glycine, 36 mg/ml Na2HPO4.7H2O, pH 9.2-9.3) 0.35%; (1 month storage at about 4° C. to about 8° C., same solution) 0.42%; (3 months storage at about 4° C. to about 8° C., same solution) 0.48%; (6 months storage at about 4° C. to about 8° C., same solution) 0.57%; (12 months storage at about 4° C. to about 8° C., same solution) 0.72%; (24 months storage at about 4° C. to about 8° C., same solution) 1.15%. In addition, the “Relative amount of ADP ([ADP]/[ATP] × 100)” value runs as follows: (36 months storage at about 4° C. to about 8° C., same solution) 1.4%; (72 months (6 years) storage at about 4° C. to about 8° C., same solution) 2.9%. For the same compound, the “pH of the solution after storage” value (72 month time point sample, initial pH 9.2-9.3) is 8.8. Besides, under “alkaline solution”, the “Stability of alkaline solution of ATP (duration)” value was “stable for at least six years”. Also, where the note is “all time points 0 to 72 months, about 4° C. to 8° C., HPLC”, the “Presence of other ATP degradation (hydrolysis) products (AMP and adenosine)” value is “significant levels of neither were detectable at any of the time points”.
